Measurements: PubChem BioAssay (NCI)
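Interpolation was linear, between the two tested concentrations surrounding the appropriate level; five concentrations were tested over 48 hours in 96-well plates. TGI is the concentration that stops growth completely.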

What was measured:
Assay in all cases: NCI tumour cell line growth inhibition, 48 h
HT29 colon = tested on: HT29 colon
MDA-MB-231 breast = tested on: MDA-MB-231 breast
MDA-N = tested on: MDA-N
OVCAR-8 ovarian = tested on: OVCAR-8 ovarian
K-562 leukemia = tested on: K-562 leukemia
CAKI-1 renal = tested on: CAKI-1 renal
HOP-92 NSCLC = tested on: HOP-92 NSCLC
COLO 205 colon = tested on: COLO 205 colon
HOP-62 NSCLC = tested on: HOP-62 NSCLC
OVCAR-4 ovarian = tested on: OVCAR-4 ovarian
A549 NSCLC = tested on: A549 NSCLC
DU-145 prostate = tested on: DU-145 prostate
ACHN renal = tested on: ACHN renal
SR leukemia = tested on: SR leukemia
KM12 colon = tested on: KM12 colon
A498 renal = tested on: A498 renal
SF-268 CNS = tested on: SF-268 CNS
OVCAR-5 ovarian = tested on: OVCAR-5 ovarian
PC-3 prostate = tested on: PC-3 prostate
BT-549 breast = tested on: BT-549 breast
NCI-H226 lung = tested on: NCI-H226 lung
NCI-H460 lung = tested on: NCI-H460 lung
HS 578T breast = tested on: HS 578T breast
SF-539 CNS = tested on: SF-539 CNS
UACC-62 melanoma = tested on: UACC-62 melanoma
TK-10 renal = tested on: TK-10 renal
RXF 393 renal = tested on: RXF 393 renal
SW-620 colon = tested on: SW-620 colon
UACC-257 melanoma = tested on: UACC-257 melanoma
M14 melanoma = tested on: M14 melanoma
NCI/ADR-RES ovarian = tested on: NCI/ADR-RES ovarian
UO-31 renal = tested on: UO-31 renal
NCI-H23 lung = tested on: NCI-H23 lung
SNB-19 CNS = tested on: SNB-19 CNS
SK-MEL-5 melanoma = tested on: SK-MEL-5 melanoma
SK-MEL-2 melanoma = tested on: SK-MEL-2 melanoma
SF-295 CNS = tested on: SF-295 CNS
SK-OV-3 ovarian = tested on: SK-OV-3 ovarian
CCRF-CEM leukemia = tested on: CCRF-CEM leukemia
U251 CNS = tested on: U251 CNS
HCT-15 colon = tested on: HCT-15 colon
HL-60(TB) leukemia = tested on: HL-60(TB) leukemia
NCI-H522 lung = tested on: NCI-H522 lung
LOX IMVI melanoma = tested on: LOX IMVI melanoma
T-47D breast = tested on: T-47D breast
HCC-2998 colon = tested on: HCC-2998 colon
SK-MEL-28 melanoma = tested on: SK-MEL-28 melanoma
IGROV1 ovarian = tested on: IGROV1 ovarian
SNB-75 CNS = tested on: SNB-75 CNS
EKVX NSCLC = tested on: EKVX NSCLC
SN12C renal = tested on: SN12C renal
MALME-3M melanoma = tested on: MALME-3M melanoma
HCT-116 colon = tested on: HCT-116 colon
786-0 renal = tested on: 786-0 renal
MCF7 breast = tested on: MCF7 breast
MOLT-4 leukemia = tested on: MOLT-4 leukemia
OVCAR-3 ovarian = tested on: OVCAR-3 ovarian
RPMI-8226 leukemia = tested on: RPMI-8226 leukemia
MDA-MB-435 = tested on: MDA-MB-435

Q: `COc1cc(C2c3cc4c(cc3OC(NNC(N)=O)C2C)OCO4)cc(OC)c1O` (stereo not given) was tested. Which TGI (HT29 colon) did it give?
A: The TGI was over 56.8 µM.

Q: What about the TGI (MDA-MB-231 breast) of the same molecule?
A: Its TGI is over 56.9 µM.

Q: What about the TGI (MDA-N) of the same molecule?
A: The TGI was 1.02 µM.

Q: And the TGI (OVCAR-8 ovarian)?
A: The TGI was over 100 µM.

Q: And the TGI (K-562 leukemia)?
A: Its TGI is over 100 µM.

Q: And the TGI (CAKI-1 renal)?
A: Its TGI is over 100 µM.

Q: And the TGI (HOP-92 NSCLC)?
A: The TGI was over 90.2 µM.

Q: And the TGI (COLO 205 colon)?
A: Its TGI is 9.4 µM.

Q: What about the TGI (HOP-62 NSCLC) of the same molecule?
A: The TGI was over 100 µM.

Q: And the TGI (OVCAR-4 ovarian)?
A: The TGI was over 100 µM.

Q: And the TGI (A549 NSCLC)?
A: The TGI was over 80.9 µM.

Q: What about the TGI (DU-145 prostate) of the same molecule?
A: Its TGI is 33.7 µM.

Q: And the TGI (ACHN renal)?
A: Its TGI is over 100 µM.

Q: What about the TGI (SR leukemia) of the same molecule?
A: Its TGI is over 100 µM.

Q: What about the TGI (KM12 colon) of the same molecule?
A: Its TGI is over 69.9 µM.

Q: And the TGI (A498 renal)?
A: Its TGI is 35.7 µM.

Q: And the TGI (SF-268 CNS)?
A: The TGI was over 100 µM.

Q: What about the TGI (OVCAR-5 ovarian) of the same molecule?
A: The TGI was over 100 µM.

Q: And the TGI (PC-3 prostate)?
A: The TGI was over 100 µM.

Q: And the TGI (BT-549 breast)?
A: The TGI was over 100 µM.

Q: And the TGI (NCI-H226 lung)?
A: Its TGI is 27.1 µM.

Q: And the TGI (NCI-H460 lung)?
A: Its TGI is over 100 µM.

Q: What about the TGI (HS 578T breast) of the same molecule?
A: Its TGI is over 100 µM.

Q: What about the TGI (SF-539 CNS) of the same molecule?
A: The TGI was 4.71 µM.

Q: What about the TGI (UACC-62 melanoma) of the same molecule?
A: The TGI was over 100 µM.

Q: What about the TGI (TK-10 renal) of the same molecule?
A: Its TGI is over 73.8 µM.

Q: And the TGI (RXF 393 renal)?
A: The TGI was over 20.9 µM.

Q: And the TGI (SW-620 colon)?
A: Its TGI is over 100 µM.

Q: What about the TGI (UACC-257 melanoma) of the same molecule?
A: The TGI was over 100 µM.

Q: And the TGI (M14 melanoma)?
A: The TGI was over 42.6 µM.

Q: What about the TGI (NCI/ADR-RES ovarian) of the same molecule?
A: Its TGI is over 76.1 µM.

Q: And the TGI (UO-31 renal)?
A: Its TGI is over 100 µM.

Q: And the TGI (NCI-H23 lung)?
A: Its TGI is over 100 µM.

Q: And the TGI (SNB-19 CNS)?
A: Its TGI is over 100 µM.

Q: And the TGI (SK-MEL-5 melanoma)?
A: Its TGI is 18 µM.

Q: And the TGI (SK-MEL-2 melanoma)?
A: The TGI was over 74.4 µM.

Q: And the TGI (SF-295 CNS)?
A: The TGI was over 85.7 µM.

Q: What about the TGI (SK-OV-3 ovarian) of the same molecule?
A: Its TGI is over 51.5 µM.

Q: And the TGI (CCRF-CEM leukemia)?
A: Its TGI is over 100 µM.

Q: What about the TGI (U251 CNS) of the same molecule?
A: Its TGI is over 53.1 µM.

Q: What about the TGI (HCT-15 colon) of the same molecule?
A: Its TGI is over 100 µM.

Q: What about the TGI (HL-60(TB) leukemia) of the same molecule?
A: Its TGI is 7.84 µM.

Q: What about the TGI (NCI-H522 lung) of the same molecule?
A: Its TGI is 10.5 µM.

Q: What about the TGI (LOX IMVI melanoma) of the same molecule?
A: Its TGI is over 100 µM.

Q: And the TGI (T-47D breast)?
A: The TGI was over 100 µM.

Q: What about the TGI (HCC-2998 colon) of the same molecule?
A: The TGI was 6.5 µM.

Q: And the TGI (SK-MEL-28 melanoma)?
A: The TGI was over 100 µM.

Q: What about the TGI (IGROV1 ovarian) of the same molecule?
A: The TGI was over 100 µM.

Q: And the TGI (SNB-75 CNS)?
A: Its TGI is over 100 µM.

Q: What about the TGI (EKVX NSCLC) of the same molecule?
A: Its TGI is over 100 µM.

Q: And the TGI (SN12C renal)?
A: Its TGI is over 90.4 µM.

Q: And the TGI (MALME-3M melanoma)?
A: Its TGI is over 100 µM.

Q: And the TGI (HCT-116 colon)?
A: The TGI was over 56.5 µM.

Q: And the TGI (786-0 renal)?
A: The TGI was over 80.1 µM.

Q: What about the TGI (MCF7 breast) of the same molecule?
A: The TGI was over 55 µM.

Q: And the TGI (MOLT-4 leukemia)?
A: Its TGI is over 100 µM.

Q: And the TGI (OVCAR-3 ovarian)?
A: The TGI was 10.1 µM.

Q: And the TGI (RPMI-8226 leukemia)?
A: Its TGI is over 31.8 µM.

Q: How did the TGI (MDA-MB-435) turn out when `CCOC(=O)C(NC(=O)CC)(Nc1cc(C)on1)C(F)(F)F` (stereo not given) was run?
A: Its TGI is over 100 µM.

Q: What about the TGI (HT29 colon) of the same molecule?
A: The TGI was over 100 µM.

Q: What about the TGI (MDA-N) of the same molecule?
A: Its TGI is over 100 µM.

Q: What about the TGI (OVCAR-8 ovarian) of the same molecule?
A: Its TGI is over 100 µM.

Q: What about the TGI (K-562 leukemia) of the same molecule?
A: Its TGI is over 100 µM.

Q: What about the TGI (COLO 205 colon) of the same molecule?
A: Its TGI is over 100 µM.

Q: And the TGI (A549 NSCLC)?
A: The TGI was over 100 µM.

Q: And the TGI (ACHN renal)?
A: The TGI was over 100 µM.

Q: What about the TGI (SR leukemia) of the same molecule?
A: The TGI was over 100 µM.

Q: And the TGI (SF-268 CNS)?
A: The TGI was over 100 µM.

Q: What about the TGI (OVCAR-5 ovarian) of the same molecule?
A: The TGI was over 100 µM.

Q: What about the TGI (PC-3 prostate) of the same molecule?
A: The TGI was over 100 µM.

Q: What about the TGI (BT-549 breast) of the same molecule?
A: Its TGI is over 100 µM.

Q: And the TGI (HS 578T breast)?
A: Its TGI is over 100 µM.

Q: And the TGI (SF-539 CNS)?
A: Its TGI is over 100 µM.

Q: And the TGI (TK-10 renal)?
A: The TGI was over 100 µM.

Q: What about the TGI (RXF 393 renal) of the same molecule?
A: The TGI was over 100 µM.

Q: What about the TGI (SW-620 colon) of the same molecule?
A: The TGI was over 100 µM.

Q: And the TGI (UACC-257 melanoma)?
A: The TGI was over 100 µM.

Q: What about the TGI (M14 melanoma) of the same molecule?
A: Its TGI is over 100 µM.

Q: What about the TGI (NCI/ADR-RES ovarian) of the same molecule?
A: Its TGI is over 100 µM.

Q: What about the TGI (UO-31 renal) of the same molecule?
A: Its TGI is over 100 µM.

Q: What about the TGI (NCI-H23 lung) of the same molecule?
A: Its TGI is over 100 µM.

Q: And the TGI (SNB-19 CNS)?
A: Its TGI is over 100 µM.

Q: And the TGI (SK-MEL-5 melanoma)?
A: The TGI was over 100 µM.

Q: And the TGI (SK-MEL-2 melanoma)?
A: The TGI was over 100 µM.

Q: And the TGI (CCRF-CEM leukemia)?
A: The TGI was over 100 µM.

Q: What about the TGI (U251 CNS) of the same molecule?
A: Its TGI is over 100 µM.

Q: And the TGI (HCT-15 colon)?
A: Its TGI is over 100 µM.

Q: What about the TGI (HL-60(TB) leukemia) of the same molecule?
A: The TGI was over 100 µM.

Q: What about the TGI (LOX IMVI melanoma) of the same molecule?
A: The TGI was over 100 µM.

Q: And the TGI (T-47D breast)?
A: The TGI was over 100 µM.

Q: What about the TGI (HCC-2998 colon) of the same molecule?
A: The TGI was over 100 µM.

Q: What about the TGI (SK-MEL-28 melanoma) of the same molecule?
A: The TGI was over 100 µM.

Q: And the TGI (IGROV1 ovarian)?
A: The TGI was over 100 µM.

Q: And the TGI (SNB-75 CNS)?
A: Its TGI is over 100 µM.

Q: And the TGI (EKVX NSCLC)?
A: The TGI was over 100 µM.

Q: What about the TGI (SN12C renal) of the same molecule?
A: The TGI was over 100 µM.

Q: What about the TGI (HCT-116 colon) of the same molecule?
A: The TGI was over 100 µM.

Q: What about the TGI (786-0 renal) of the same molecule?
A: The TGI was over 100 µM.

Q: What about the TGI (MOLT-4 leukemia) of the same molecule?
A: Its TGI is over 100 µM.

Q: And the TGI (RPMI-8226 leukemia)?
A: The TGI was over 100 µM.
